Results taken from patent US20100260697A1, “Composition Containing An Extract of the Fruit of Schisandra Chinensis and Process for Producing Same” (COGNIS FRANCE S.A.S., priority 2003, published 2010).
Values joined by “and” are separate entries in the source; they are usually repeats but may differ in a detail not shown here. Equal entries are not always repeated.

Columns and labels:
melanocytes B16 = test: Inhibition of melanin synthesis; whitening activity on melanocytes B16; format: cell-based; conditions: for Melanin / Proteins: % against control, 3 days
Protocol: The whitening activity of the extract was evaluated on a cell line of melanocytes (melanocytes B16 were used; this is a cell line known to the skilled person in the art). The melanocytes were exposed to the extract for 3 days at 37° C. and then the melanocytes were homogenised in 1 n NaOH and the level of melanin was evaluated by measuring the optical density at 475 nm. The level of proteins in the cells was determined by Bradford's method.
The results are expressed in % refering of the control and the whitening potential is characterised by the ratio of melanin level by the protein level (or melanin/protein) for a non toxic concentration of the tested compound.

human fibroblasts = test: Protection of human fibroblasts against UV-A radiation (released MDA, cellular proteins); format: cell-based; conditions: % versus non-irradiated control; UV-A 20 J/cm2; dose 0.0003 % w/v
Protocol: The aim of this test is to evaluate the capacities against oxidative stress of the extract by a test on a cell culture of human fibroblasts in vitro. This test in vitro evaluates the capacities of cytophotoprotection of human fibroblasts against UV-A radiation. […] The formed lipoperoxydes split in malondialdehyde responsible of the reticulation of many biological molecules such as proteins (inhibition of enzymes) and nucleic bases (mutagenesis).
The fibroblasts were seeded in a defined culture medium with foetal calf serum (FCS). […] At the end of the irradiation, the level of MDA (malondialdehyde) was measured in the supernatant by a chemical reaction of MDA with thiobarbituric acid which produces a coloured compound the concentration of which was determined by measuring optical density and the level of proteins was measured in the cell homogenate by Bradford's method. Bradford's method is a known method to quantify the level of proteins (Bradford M M., A rapid and sensitive method for the quantification of microgram quantities of protein utilizing the principle of protein-dye binding. Anal. Biochem., Vol 72, pages 248 to 254, 1976).
The results are expressed as % versus the irradiated control or MDA, and the non-irradiated control for proteins then as an average value of 2 tests in triplicate: […]

`O=c1cc(CO)occ1O` [Kojic acid] was tested, and the Melanin (melanocytes B16; dose 0.03 % w/v) was 26%, the Proteins (melanocytes B16; dose 0.03 % w/v) was 89% and the “Index = Proteins/Melanin” value (melanocytes B16; dose 0.03 % w/v) was 3.37.

With vitamin E the “Cellular Proteins” value (human fibroblasts) was 110% and 96%.

With `OC[C@H]1O[C@@H](Oc2ccc(O)cc2)[C@H](O)[C@@H](O)[C@@H]1O` [Arbutin] the Melanin (melanocytes B16; dose 0.2 % w/v) was 54%, the Proteins (melanocytes B16; dose 0.2 % w/v) was 86% and the “Index = Proteins/Melanin” value (melanocytes B16; dose 0.2 % w/v) was 1.60.
